Here are results for one compound from patent publication US20040048814A1, “Sustained release composition contraining clarithromycin” (priority 2000, published 2004).

SMILES strings stand for the structures. Read-outs that look alike come from different tables or passages of the source.

The conditions of data set [1]: cited from earlier work.
Data set [2] can be described thus: In vitro dissolution test, paddle apparatus, pH 5.0 phosphate buffer. It is filed as physicochemical. The conditions noted are these: pH 5.0, 100 rpm, 900 ml. The source says:
The dissolution test is usually the most appropriate analytical tool to assess the quality of the oral formulations and especially of sustained release oral formulations.

The conditions of data set [3]: cited from earlier work. This is another data set of the same source.

Regarding `CC[C@H]1OC(=O)[C@H](C)[C@@H](O[C@H]2C[C@@](C)(OC)[C@@H](O)[C@H](C)O2)[C@H](C)[C@@H](O[C@@H]2O[C@H](C)C[C@H](N(C)C)[C@H]2O)[C@](C)(OC)C[C@@H](C)C(=O)[C@H](C)[C@@H](O)[C@]1(C)O` [clarithromycin, Clarithromycin], the water solubility result in data set [1] (pH below 5) is “good and quite constant”. Further, the solubility entry is recorded as “decreases dramatically” in data set [1] (pH greater than 5) and “quasi nil” in data set [1] (pH=8). In addition, the “% of dissolved clarithromycin” value in data set [2] (after 5 minutes, amount of coating 12% of the weight of the core) is given as “about 40%”; in data set [2] (after 5 minutes, amount of coating 14% of the weight of the core) it was “about 20%”; in data set [2] (after about 5 minutes, amount of coating 10% of the weight of the core) it was “about 80%”. In addition, the “increase of bioavailability by food intake (mean)” value in data set [3] (food intake immediately before administration) is 25%. For the same compound, the “time to achieve peak blood concentrations” value in data set [3] (oral administration) is “about 2 hours”. The “availability after an oral dose” value in data set [3] (oral dose of 250 mg) is approximately 55%.
